Source: patent US20240376085A1 (Janssen Pharmaceutica NV, priority 2021, published 2024)

Columns and labels:
[1] = tested on: IL-17A-induced G-CSF production in human normal keratinocyte (NHK); assay: NHK assay: IL-17A-induced G-CSF production in normal human keratinocytes; type: cell-based; conditions: 24 h, IL-17A 5 ng/mL, average if tested more than once
Method in brief: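 Compound titrations are first mixed with recombinant human IL-17A for 1 h at room temperature. The mixture goes onto adult normal human keratinocytes (final IL-17A 5 ng/mL, 5% FBS, 0.2% DMSO) for 24 h at 37 °C. Secreted G-CSF is then measured by HTRF and IC50 fitted.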

IL-17A : IL-17RA binding = target: T1, IL-17A : IL-17RA binding (Homo sapiens, UniProt Q16552, K93Q); assay: IL-17A(FLAG-tagged):IL-17RA(His-tagged) binding disruption Eu-HTRF assay, Protocol 1; conditions: FLAG-IL-17A 2.5 nM at 2x final concentration; average if tested more than once
T1 construct: Name: IL-17A-Flag
T1 sequence (Q16552 with tags, fused parts or gaps K93Q): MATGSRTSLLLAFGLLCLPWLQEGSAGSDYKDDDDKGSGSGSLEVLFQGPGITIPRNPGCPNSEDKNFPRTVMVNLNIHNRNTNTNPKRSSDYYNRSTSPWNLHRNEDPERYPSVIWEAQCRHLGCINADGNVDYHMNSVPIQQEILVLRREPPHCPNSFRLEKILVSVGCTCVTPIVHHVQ
Method in brief: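 IC50 came from a one-site competition fit of the acceptor/donor (665/620 nm) HTRF ratio. His-tagged IL-17RA, Eu-anti-FLAG and D2-anti-His were added after a 1 h rt compound preincubation with FLAG-tagged IL-17A dimer in PBS/0.01% Triton X-100, followed by 2 h at rt before reading.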

Structure (SMILES) | IC50 ([1]; Homo sapiens, Keratinocyte) | IC50 (IL-17A : IL-17RA binding) | IC50 [1]
Cc1nonc1C(=O)N[C@@H](CC(C)(C)C(F)(F)F)c1nc2cc([C@@H](NC(=O)CCC(F)(F)F)C3CC3)ccc2[nH]1 (relative stereo) [Example 192, N—((S*)-1-(5-((S*)-Cyclopropyl(4,4,4-trifluorobutanamido)methyl)-1H-benzo[d]imidazol-2-yl)-4,4,4-trifluoro-3,3-dimethylbutyl)-4-methyl-1,2,5-oxadiazole-3-carboxamide] | > 100 nM | > 100 nM | –
Cc1c(C(=O)N[C@H](c2nc3cc([C@@H](C)NC(=O)CCC(F)(F)F)ccc3[nH]2)C2CCC(F)(F)CC2)cnn1CC(F)(F)F [Example 18, N—[(S)-(4,4-Difluorocyclohexyl)-[6-[(1R)-1-(4,4,4-trifluorobutanoylamino)ethyl]-1H-benzimidazol-2-yl]methyl]-5-methyl-1-(2,2,2-trifluoroethyl)pyrazole-4-carboxamide] | > 100 nM | > 100 nM | –
CC(C)n1nccc1C(=O)N[C@H](c1nc2ccc([C@H](NC(=O)CC3CC(F)(F)C3)C3CC3)cc2[nH]1)C1CC(F)(F)CCO1 (single isomer, unassigned) [Example 172, N—((R)-(6-((R)-Cyclopropyl(2-(3,3-difluorocyclobutyl)acetamido)methyl)-1H-benzo[d]imidazol-2-yl)((S*)-4,4-difluorotetrahydro-2H-pyran-2-yl)methyl)-1-isopropyl-1H-pyrazole-5-carboxamide] | < 50 nM | > 100 nM | –
CC(C)c1scnc1C(=O)N[C@H](c1nc2cc([C@@H](C)NC(=O)CCC(F)(F)F)ccc2[nH]1)C1CCC(F)(F)CC1 [Example 200, N—((S)-(4,4-Difluorocyclohexyl)(5-((R)-1-(4,4,4-trifluorobutanamido)ethyl)-1H-benzo[d]imidazol-2-yl)methyl)-5-isopropylthiazole-4-carboxamide] | 50 to 100 nM | 50 to 100 nM | –
[2H]C([2H])([2H])C([2H])([2H])n1nccc1C(=O)N[C@@H](COC(C)(C)C(F)(F)F)c1nc2ccc([C@H](NC(=O)CC3CC(F)(F)C3)C3CC3)cc2[nH]1 [Example 76, N—((R)-1-(6-((R)-Cyclopropyl(2-(3,3-difluorocyclobutyl)acetamido)methyl)-1H-benzo[d]imidazol-2-yl)-2-((1,1,1-trifluoro-2-methylpropan-2-yl)oxy)ethyl)-1-(ethyl-d5)-1H-pyrazole-5-carboxamide] | < 50 nM | < 50 nM | –
C[C@@H](NC(=O)CCC(F)(F)F)c1ccc2[nH]c([C@@H](NC(=O)[C@H]3CC[C@@H]3CF)C3CCC(F)(F)CC3)nc2c1 (single isomer, unassigned) [Example 114] | > 100 nM | > 100 nM | –
CC(Cn1nncc1C(=O)N[C@H](c1nc2ccc([C@@H](C)NC(=O)CCC(F)(F)F)cc2[nH]1)C1CCC(F)(F)CC1)C(F)(F)F (single isomer, unassigned) [Example 71, N—((S)-(4,4-Difluorocyclohexyl)(6-((R)-1-(4,4,4-trifluorobutanamido)ethyl)-1H-benzo[d]imidazol-2-yl)methyl)-1-((R*)-3,3,3-trifluoro-2-methylpropyl)-1H-1,2,3-triazole-5-carboxamide] | > 100 nM | > 100 nM | –
C[C@@H](NC(=O)CCC(F)(F)F)c1ccc2[nH]c([C@@H](NC(=O)c3cnc4n3CCC4)C3CCC(F)(F)CC3)nc2c1 [Example 211, N—((S)-(4,4-Difluorocyclohexyl)(5-((R)-1-(4,4,4-trifluorobutanamido)ethyl)-1H-benzo[d]imidazol-2-yl)methyl)-6,7-dihydro-5H-pyrrolo[1,2-a]imidazole-3-carboxamide] | > 100 nM | > 100 nM | –
Cc1nonc1C(=O)N[C@@H](c1nc2ccc([C@H](NC(=O)CC3CC(F)(F)C3)C3CC3)cc2[nH]1)[C@@H]1CCCCO1 (relative stereo) [Example 249, N—((S*)-(6-((R)-Cyclopropyl(2-(3,3-difluorocyclobutyl)acetamido)methyl)-1H-benzo[d]imidazol-2-yl)((S*)-tetrahydro-2H-pyran-2-yl)methyl)-4-methyl-1,2,5-oxadiazole-3-carboxamide] | > 100 nM | > 100 nM | –
CCn1nccc1C(=O)N[C@H](c1nc2cc([C@@H](C)NC(=O)CC(C(F)(F)F)C(F)(F)F)ccc2[nH]1)C1CCC(F)(F)CC1 [Example 127, N—((S)-(4,4-Difluorocyclohexyl)(5-((R)-1-(4,4,4-trifluoro-3-(trifluoromethyl)butanamido)ethyl)-1H-benzo[d]imidazol-2-yl)methyl)-1-ethyl-1H-pyrazole-5-carboxamide] | < 50 nM | 50 to 100 nM | –
CC(C)n1nccc1C(=O)N[C@@H](CC(C)(C)C(F)(F)F)c1nc2ccc([C@H](NC(=O)CC3CC(F)(F)C3)C3CC3)cc2[nH]1 [Example 177, N—((S)-1-(6-((R)-Cyclopropyl(2-(3,3-difluorocyclobutyl)acetamido)methyl)-1H-benzo[d]imidazol-2-yl)-4,4,4-trifluoro-3,3-dimethylbutyl)-1-isopropyl-1H-pyrazole-5-carboxamide] | < 50 nM | > 100 nM | –
CC(C)n1nccc1C(=O)NC(COC(C)(C)C(C)(F)F)c1nc2ccc([C@H](NC(=O)CC3CC(F)(F)C3)C3CC3)cc2[nH]1 (single isomer, unassigned) [Example 149, N—((R*)-1-(6-((R)-Cyclopropyl(2-(3,3-difluorocyclobutyl)acetamido)methyl)-1H-benzo[d]imidazol-2-yl)-2-((3,3-difluoro-2-methylbutan-2-yl)oxy)ethyl)-1-isopropyl-1H-pyrazole-5-carboxamide] | < 50 nM | > 100 nM | –
CC(C)(OC[C@H](NC(=O)c1nonc1C1CC1)c1nc2ccc([C@H](NC(=O)CC3CC(F)(F)C3)C3CC3)cc2[nH]1)C(F)(F)F [Example 159, 4-Cyclopropyl-N—((R)-1-(6-((R)-cyclopropyl(2-(3,3-difluorocyclobutyl)acetamido)methyl)-1H-benzo[d]imidazol-2-yl)-2-((1,1,1-trifluoro-2-methylpropan-2-yl)oxy)ethyl)-1,2,5-oxadiazole-3-carboxamide] | < 50 nM | < 50 nM | –
C[C@@H](NC(=O)CCC(F)(F)F)c1ccc2nc([C@@H](NC(=O)c3cnnn3C3CC3)C3CCC(F)(F)CC3)[nH]c2c1 [Example 60, 1-Cyclopropyl-N—((S)-(4,4-difluorocyclohexyl)(6-((R)-1-(4,4,4-trifluorobutanamido)ethyl)-1H-benzo[d]imidazol-2-yl)methyl)-1H-1,2,3-triazole-5-carboxamide] | > 100 nM | > 100 nM | –
Cc1nonc1C(=O)N[C@H](c1nc2ccc([C@H](NC(=O)CC3CC(F)(F)C3)C3CC3)cc2[nH]1)C1CCOC(C)(C)C1 (single isomer, unassigned) [Example 174, N—((S)-(6-((R)-Cyclopropyl(2-(3,3-difluorocyclobutyl)acetamido)methyl)-1H-benzo[d]imidazol-2-yl)((R*)-2,2-dimethyltetrahydro-2H-pyran-4-yl)methyl)-4-methyl-1,2,5-oxadiazole-3-carboxamide] | – | > 100 nM | 50 to 100 nM
CC(C)CCn1ncc(C(=O)N[C@H](c2nc3cc([C@@H](C)NC(=O)CCC(F)(F)F)ccc3[nH]2)C2CCC(F)(F)CC2)c1C(C)C [Example 11, N—[(S)-(4,4-Difluorocyclohexyl)-[6-[(1R)-1-(4,4,4-trifluorobutanoylamino)ethyl]-1H-benzimidazol-2-yl]methyl]-1-isopentyl-5-isopropyl-pyrazole-4-carboxamide] | > 100 nM | > 100 nM | –
CC(NC(=O)CCC(F)(F)F)c1ccc2nc([C@H](CC(C)(C)C(F)(F)F)NC(=O)c3ccnn3C(C)C)[nH]c2c1 (single isomer, unassigned) [Example 232, 1-Isopropyl-N—((S)-4,4,4-trifluoro-3,3-dimethyl-1-(6-((R*)-1-(4,4,4-trifluorobutanamido)ethyl)-1H-benzo[d]imidazol-2-yl)butyl)-1H-pyrazole-5-carboxamide] | – | > 100 nM | 50 to 100 nM
C[C@@H](NC(=O)CCC(F)(F)F)c1ccc2[nH]c([C@@H](NC(=O)C3CC34CCC4)C3CCC(F)(F)CC3)nc2c1 (stereo partly drawn) [Example 111, N—((S)-(4,4-Difluorocyclohexyl)(5-((R)-1-(4,4,4-trifluorobutanamido)ethyl)-1H-benzo[d]imidazol-2-yl)methyl)spiro[2.3]hexane-1-carboxamide] | > 100 nM | > 100 nM | –
C[C@@H](NC(=O)CCC(F)(F)F)c1ccc2[nH]c([C@@H](NC(=O)c3cnn(CC4CC4(F)F)n3)C3CCC(F)(F)CC3)nc2c1 (stereo partly drawn) [Example 81, N—((S)-(4,4-Difluorocyclohexyl)(5-((R)-1-(4,4,4-trifluorobutanamido)ethyl)-1H-benzo[d]imidazol-2-yl)methyl)-2-((2,2-difluorocyclopropyl)methyl)-2H-1,2,3-triazole-4-carboxamide] | > 100 nM | > 100 nM | –
CC(CC(=O)N[C@H](C)c1ccc2nc([C@@H](NC(=O)c3ccnn3CC(F)(F)F)C3CCC(F)(F)CC3)[nH]c2c1)C(F)(F)F (single isomer, unassigned) [Example 137, N—((S)-(4,4-Difluorocyclohexyl)(6-((R)-1-((S*)-4,4,4-trifluoro-3-methylbutanamido)ethyl)-1H-benzo[d]imidazol-2-yl)methyl)-1-(2,2,2-trifluoroethyl)-1H-pyrazole-5-carboxamide] | – | > 100 nM | 50 to 100 nM
